# Laboratory results reported in US12404332B2, “Methods for diagnosing and treating cancers” (Research Development Foundation, priority 2020, dated 2025).
# Tests used:
# [1] = system: ID8agg cells; assay: Chk1 inhibitor synthetic lethality with ceftazidime, ID8agg cells; type: cell-based, mouse
# Protocol: (§1) Additional experiments were performed, as follows. MB49 were plated at 2,000 cells/well in 96 well flat bottom plates and treated with PD-L1 depleting drugs, olaparib (2.5 μM), and combination for 96 hours. RT4 were plated at 2,000 cells/well in 96 well flat bottom plates and treated with cefepime, rabusertib (1 μM), praxasertib, or combination for 96 hours. ID8agg, 4T1, and B16 cells were plated on fibronectin at 500 cells/well and treated with cefepime, rabusertib, or combination for 96 hours. Normalized treatment combination to DDR inhibitor alone, and PD-L1 depleting drug to vehicle alone (DMSO) were evaluated.
# [2] = system: PD-L1; assay: Tumor cell PD-L1 depletion by drugs (flow cytometry, immunoblot); type: cell-based, human and mouse; conditions: summary statement
# Protocol: High throughput Screening: B16 PD-L1 RFP cells were treated with 2.5 and 10 μM compounds from the Prestwick and LOPAC Libraries for 48 hours using the Agilent Bravo liquid pipetting platform. Then, cells were washed with PBS, and fixed with 4% paraformaldehyde (Electron Microscopy Sciences, Hatsfield, PA, Cat 15714S) and labeled with 2 μg/ml DAPI, (Molecular Probes, Cat D1306) and 1 μg/ml Cell Mask-Blue (Invitrogen, Cat. H32720). Plates were then imaged using the Operetta High Content Imaging System, Perkin Elmer, Waltham (DAPI and Cell Mask Blue, Ex 360-400, Em 410-480), and the RFP channels (Ex 520-550, Em 560-630) channels. Agents effecting ≥2-fold PD-L1 reduction in the RFP reporter without loss of ≥20% cell viability were candidate PD-L1 depletion agents.
# Flow cytometry: Mice were sacrificed by cervical dislocation after induction of deep isoflurane anesthesia. ID8agg tumors were collected and cells were stained as described (Derup et al., 2020) using LSR II hardware and analyzed by FACS Diva (BD Bioscience) or Flow Jo software (Flow Jo, LLC). Anti-mouse (clone 10F.9G2) and human (clone 29E.2A3) PD-L1 [both PE/Cy7, Cat #124314 (mouse) 329718 (human)] were matched with isotype control. Apoptosis assessment used Annexin V and propidium iodide (Thermo Scientific) per manufacturer instruction.
# Western blotting and immunoprecipitation: To prepare whole cell lysates, cells were harvested and lysed in RIPA (radioimmunoprecipitation assay) buffer plus 1 mM phenylmethylsulphonyl fluoride and Halt protease/phosphatase inhibitor cocktail (Thermo Scientific) at 4° C. Protein concentrations were measured by BCA Protein Assay Kit (Thermo Scientific). Protein was run on precast 4-15% sodium dodecyl sulfate polyacrylamide gels (Bio-Rad), transferred to polyvinylidene fluoride membranes (GE Water and Process Technologies), and then blocked in 5% non-fat milk for 1 hour at room temperature. The membranes were then incubated with 1:1000 diluted primary antibodies against indicated proteins (Cell Signaling). Specific antibody binding was detected by chemiluminescence using Western Lightening Plus regent (Perkin Elmer). Cells for (co) immunoprecipitation experiments were seeded in 15-cm dishes and cultured as described, using 6 million cells per immunoprecipitation reaction. For protein ubiquitination, cells were lysed in denaturing buffer (50 mM Tris-HCl, 0.5 mM EDTA and 1% SDS) followed by heating at 95° C. for 10 minutes and then quenched with 9 volumes of quenching buffer (0.5% Triton X-100, 20 mM Tris-HCl (pH 8.0), 137 mM NaCl, 10% glycerol, 2 mM EDTA). Protease inhibitor cocktail (Roche) was added fresh to all buffers. Cell lysates were incubated on a rotator for 30 minutes at 4° C., and then centrifuged at 20,000 g for 15 minutes at 4° C. Supernatants were subsequently incubated with anti-PD-L1 antibody overnight and processed using Dynabeads Protein G for Immunoprecipitation (Thermo Fisher Scientific). The final eluate was processed and Western blotting was performed.
# [3] = system: RT4 cells; assay: Chk1 inhibitor synthetic lethality with beta-lactam antibiotics, RT4 cells; type: cell-based, human
# Protocol: as §1
smiles,measurement,setting,value
CC(C)(O/N=C(\C(=O)N[C@@H]1C(=O)N2C(C(=O)[O-])=C(C[n+]3ccccc3)CS[C@H]12)c1csc(N)n1)C(=O)O [ceftazidime],synthetic lethality with Chk1i,[1],induce synthetic lethality
same,expression of PD-L1 in cancer cells,[2],decreased expression of PD-L1
same,PD-L1 dependence of synthetic lethality,[3]; FIG. 47B,PD-L1 dependent
same,synthetic lethality with Chk1i,"[3]; RT4 cells, Chk1i rabusertib",induce synthetic lethality
